Test results as given in ChEMBL document CHEMBL4376803, “Recent Advances in the Exploration of Therapeutic Analogues of Gramicidin S, an Old but Still Potent Antimicrobial Peptide” (J Med Chem, 2019).
In brackets after ≈: the same amount, converted by molar mass. Blank lines part the entries; values can stand above or below the compound they belong to.

Tests used:
[1] = tested on: Erythrocyte; test: Hemolytic activity against RBC (unknown origin) at 100 ul after 4 hrs; type: ADME, cell-based; settings: erythrocyte, 4 h
[2] = Therapeutic index, ratio of HC90 for hemolytic activity in human erythrocytes to MIC against Enterococcus faecalis ATCC 29212; type: toxicity, cell-based; settings: read-out: TI
[3] = tested on: Erythrocyte; test: Haemolytic activity in human RBC after 30 mins by spectrophotometric analysis; type: ADME, cell-based; settings: 0.5 h
[4] = tested on: Staphylococcus aureus; test: Antibacterial activity against Staphylococcus aureus ATCC 25923 after 22 hrs by double dilution method; type: functional; settings: ATCC 25923, 22 h
[5] = tested on: Staphylococcus epidermidis; test: Antibacterial activity against Staphylococcus epidermidis ATCC 12228 after 22 hrs by double dilution method; type: functional; settings: ATCC 12228, 22 h
[6] = Therapeutic index, ratio of HC90 for hemolytic activity in human erythrocytes to MIC against Pseudomonas aeruginosa ATCC 27853; type: toxicity, cell-based; settings: read-out: TI
[7] = Therapeutic index, ratio of HC90 for hemolytic activity in human erythrocytes to MIC against Staphylococcus epidermidis ATCC 12228; type: toxicity, cell-based; settings: read-out: TI
[8] = tested on: Escherichia coli; test: Antibacterial activity against Escherichia coli ATCC 25922 after 22 hrs by double dilution method; type: functional; settings: ATCC 25922, 22 h
[9] = Therapeutic index, ratio of HC90 for hemolytic activity in human erythrocytes to MIC against Escherichia coli ATCC 25922; type: toxicity, cell-based; settings: read-out: TI
[10] = tested on: Pseudomonas aeruginosa; test: Antibacterial activity against Pseudomonas aeruginosa ATCC 27853 after 22 hrs by double dilution method; type: functional; settings: ATCC 27853, 22 h
[11] = Therapeutic index, ratio of HC90 for hemolytic activity in human erythrocytes to MIC against Staphylococcus aureus ATCC 25923; type: toxicity, cell-based; settings: read-out: TI
[12] = tested on: Enterococcus faecalis; test: Antibacterial activity against Enterococcus faecalis ATCC 29212 after 22 hrs by double dilution method; type: functional; settings: ATCC 29212, 22 h
[13] = tested on: Enterococcus faecalis; test: Antibacterial activity against Enterococcus faecalis ATCC 29212 after overnight incubation; type: functional
[14] = tested on: Bacillus cereus; test: Antibacterial activity against Bacillus cereus ATCC 11778 after overnight incubation; type: functional
[15] = tested on: Staphylococcus aureus; test: Antibacterial activity against Staphylococcus aureus ATCC 29213 after overnight incubation; type: functional
[16] = tested on: Staphylococcus epidermidis; test: Antibacterial activity against Staphylococcus epidermidis ATCC 12228 after overnight incubation; type: functional
[17] = tested on: Escherichia coli; test: Antibacterial activity against Escherichia coli ATCC 25922 after overnight incubation; type: functional
[18] = tested on: Pseudomonas aeruginosa; test: Antibacterial activity against Pseudomonas aeruginosa ATCC 27853 after overnight incubation; type: functional

SMILES: CC(C)C[C@@H]1NC(=O)[C@H](CCCN)NC(=O)[C@H](C(C)C)NC(=O)[C@@H]2CCCN2C(=O)[C@@H](Cc2ccccc2)NC(=O)[C@H](CC(C)C)NC(=O)[C@H](CCCN)NC(=O)[C@H](C(C)C)NC(=O)[C@H]2CC[C@H](OCc3ccccc3)[C@@H](CNC1=O)O2
- HD100 [1]: 500 µg/mL

- MIC [4]: 4 µg/mL (≈ 3.21 µM)
- MIC [5]: 4 µg/mL (≈ 3.21 µM)
- MIC [8]: 64 µg/mL (≈ 51.3 µM)
- MIC [10]: 128 µg/mL (≈ 103 µM)
- MIC [12]: 8 µg/mL (≈ 6.41 µM)
SMILES: CCCCCCCC[C@H]1CC2C(C1)[C@@H]1SC[C@H]3C(=O)N[C@@H](C(C)C)C(=O)N[C@@H](CCCN)C(=O)N[C@@H](CC(C)C)C(=O)N[C@H](Cc4ccccc4)C(=O)N4CCC[C@H]4C(=O)N[C@@H](C(C)C)C(=O)N[C@H](CCCN)C(=O)N[C@@H](CC(C)C)C(=O)N[C@H]2C(=O)N31 (stereo partly drawn)
- selectivity ratio [2]: 4.75
- HC90 [3]: 38 µg/mL
- selectivity ratio [6]: 0.3
- selectivity ratio [7]: 9.5
- selectivity ratio [9]: 0.59
- selectivity ratio [11]: 9.5

- MIC [13]: 8 µg/mL (≈ 6.69 µM)
- MIC [14]: 4 µg/mL (≈ 3.34 µM)
- MIC [15]: 4 to 8 µg/mL (≈ 3.34 to 6.69 µM)
- MIC [16]: 2 µg/mL (≈ 1.67 µM)
- MIC [17]: > 64 µg/mL
- MIC [18]: > 64 µg/mL
SMILES: CC(C)C[C@@H]1NC(=O)[C@H](CCCN)NC(=O)[C@H](C(C)C)NC(=O)[C@@H]2CCCN2C(=O)[C@@H](Cc2ccccc2)NC(=O)[C@H](CC(C)C)NC(=O)[C@H](CCCN)NC(=O)[C@H](C(C)C)NC(=O)[C@@H]2O[C@H](CNC1=O)[C@@H](OCc1ccc3ccccc3c1)[C@@H]2O
